In patent US9730446B2, “Herbicidal compositions comprising 4-amino-3-chloro-6-(4-chloro-2-fluoro-3-methoxyphenyl)pyridine-2-carboxylic acid or a derivative thereof and propyzamide” (Dow AgroSciences LLC, priority 2013, dated 2017):

Columns and labels:
Assay type in all cases: in vivo
[1] = tested on: POLCO Polygonum convolvulus L. (wild buckwheat); test: Postemergent herbicidal activity, greenhouse; details: foliar, 14 d
Protocol: (§1) Evaluation of Postemergent Herbicidal Activity. Seeds or nutlets of the desired test plant species were planted in Sun Gro Metro-Mix® 360 planting mixture, which typically has a pH of 6.0 to 6.8 and an organic matter content of about 30 percent, in plastic pots with a surface area of 64 square centimeters (cm^2). […] The plants were grown for 7-21 days (d) in a greenhouse with an approximate 15 hour (h) photoperiod which was maintained at about 23-29° C. during the day and 22-28° C. during the night. Nutrients and water were added on a regular basis and supplemental lighting was provided with overhead metal halide 1000-Watt lamps as necessary. The plants were employed for testing when they reached the first or second true leaf stage.
(§2) A weighed amount, determined by the highest rate to be tested, of each test compound was placed in a 25 milliliter (mL) glass vial and was dissolved in 4 mL of a 97:3 volume per volume (v/v) mixture of acetone and dimethyl sulfoxide (DMSO) to obtain concentrated stock solutions. […] The concentrated stock solutions obtained were diluted with 20 mL of an aqueous mixture containing acetone, water, isopropyl alcohol, DMSO, Atplus 411F crop oil concentrate, and Triton® X-155 surfactant in a 48.5:39:10:1.5:1.0:0.02 v/v ratio to obtain spray solutions containing the highest application rates. Additional application rates were obtained by serial dilution of 12 mL of the high rate solution into a solution containing 2 mL of a 97:3 v/v mixture of acetone and DMSO and 10 mL of an aqueous mixture containing acetone, water, isopropyl alcohol, DMSO, Atplus 411F crop oil concentrate, and Triton X-155 surfactant in a 48.5:39:10:1.5:1.0:0.02 v/v ratio to obtain 1/2×, 1/4×, 1/8× and 1/16× rates of the high rate. Compound requirements are based upon a 12 mL application volume at a rate of 187 liters per hectare (L/ha). Formulated compounds were applied to the plant material with an overhead Mandel track sprayer equipped with 8002E nozzles calibrated to deliver 187 L/ha over an application area of 0.503 square meters (m^2) at a spray height of 18 inches (43 cm) above the average plant canopy height. Control plants were sprayed in the same manner with the solvent blank.
(§3) Treatments consisted of the methyl ester of 4-amino-3-chloro-6-(4-chloro-2-fluoro-3-methoxyphenyl)pyridine-2-carboxylic acid (Cmpd 1) as technical grade material and propyzamide (Kerb 50 W) alone and in combination.
(§4) The treated plants and control plants were placed in a greenhouse as described above and watered by subirrigation to prevent wash-off of the test compounds. After 14 d, the condition of the test plants as compared with that of the untreated plants was determined visually and scored on a scale of 0 to 100 percent where 0 corresponds to no injury and 100 corresponds to complete kill.
(§5) Colby's equation was used to determine the herbicidal effects expected from the mixtures (Colby, S. R. Calculation of the synergistic and antagonistic response of herbicide combinations. Weeds 1967, 15, 20-22). More specifically, the following equation was used to calculate the expected activity of mixtures containing two active ingredients, A and B: Expected=A+B−(A×B/100) A=observed efficacy of active ingredient A at the same concentration as used in the mixture; B=observed efficacy of active ingredient B at the same concentration as used in the mixture.

[2] = tested on: AMARE Amaranthus retroflexus L. (redroot pigweed); test: Postemergent herbicidal activity, greenhouse; details: foliar, 14 d
Protocol: as §1, §2, §3, §4, §5

[3] = tested on: CIRAR Cirsium arvense (L.) Scop. (Canada thistle); test: Postemergent herbicidal activity, greenhouse; details: foliar, 14 d
Protocol: as §1, §2, §3, §4, §5

[4] = tested on: ABUTH Abutilon theophrasti Medik. (velvetleaf); test: Postemergent herbicidal activity, greenhouse; details: foliar, 14 d
Protocol: as §1, §2, §3, §4, §5

[5] = tested on: IPOHE Ipomoea hederacea (L.) Jacq. (ivyleaf morningglory); test: Postemergent herbicidal activity, greenhouse; details: foliar, 14 d
Protocol: as §1, §2, §3, §4, §5

[6] = tested on: CHEAL Chenopodium album L. (common lambsquarters); test: Postemergent herbicidal activity, greenhouse; details: foliar, 14 d
Protocol: as §1, §2, §3, §4, §5

[7] = tested on: VIOTR Viola tricolor L. (wild violet); test: Postemergent herbicidal activity, greenhouse; details: foliar, 14 d
Protocol: as §1, §2, §3, §4, §5

[8] = tested on: SETFA Setaria faberi Herrm. (giant foxtail); test: Postemergent herbicidal activity, greenhouse; details: foliar, 14 d
Protocol: as §1, §2, §3, §4, §5

[9] = tested on: STEME Stellaria media (L.) Vill. (common chickweed); test: Postemergent herbicidal activity, greenhouse; details: foliar, 14 d
Protocol: as §1, §2, §3, §4, §5

[10] = tested on: GLXMA Glycine max (volunteer soybean); test: Postemergent herbicidal activity, greenhouse; details: foliar, 14 d
Protocol: as §1, §2, §3, §4, §5

[11] = tested on: BRSNW Brassica napus (winter oilseed rape); test: Postemergent herbicidal activity, greenhouse; details: foliar, 14 d
Protocol: as §1, §2, §3, §4, §5

[12] = tested on: EPHHL Euphorbia heterophylla L. (wild poinsettia); test: Postemergent herbicidal activity, greenhouse; details: foliar, 14 d
Protocol: as §1, §2, §3, §4, §5

[13] = tested on: POAAN Poa annua (annual bluegrass); test: Field trial, visual weed control in winter oilseed rape
Protocol: Multiple small plot research experiments were conducted to evaluate efficacy and tolerance of winter oilseed rape to compositions described herein. Typical small plots (2-4×4-10 meters (m)) were used in growers' fields under natural conditions with normal commercial cultural practices. Backpack sprayers were used to apply all treatments based on unit area. The methyl ester of formula (I) and propyzamide were tested alone and in combination at varying rates. […] Crop stage was at Growth Stage 39-50. Visual crop injury ratings were collected 32, 49, and 74 days after treatment. […] The reported values are means. […] The following abbreviations are used in Tables 2-4: • GERSS Geranium sp. (cranesbill) • POAAN Poa annua (annual bluegrass) • VERSS Veronica sp.

COC(=O)c1nc(-c2ccc(Cl)c(OC)c2F)cc(N)c1Cl [Cmpd I, methyl ester of 4-amino-3-chloro-6-(4-chloro-2-fluoro-3-methoxyphenyl)pyridine-2-carboxylic acid]
% control rated visually, ob (observed) ([1]; Cmpd I 2.5 g ae/ha): 35% | % control rated visually, ob (observed) ([1]; Cmpd I 5 g ae/ha): 25% | % control rated visually, ob (observed) ([1]; Cmpd I 10 g ae/ha): 48% | % control rated visually, ob (observed) ([2]; Cmpd I 2.5 g ae/ha): 50% | % control rated visually, ob (observed) ([2]; Cmpd I 5 g ae/ha): 58% | % control rated visually, ob (observed) ([2]; Cmpd I 10 g ae/ha): 77% | % control rated visually, ob (observed) ([3]; Cmpd I 2.5 g ae/ha): 47% | % control rated visually, ob (observed) ([3]; Cmpd I 5 g ae/ha): 53% | % control rated visually, ob (observed) ([3]; Cmpd I 10 g ae/ha): 65% | % control rated visually, ob (observed) ([4]; Cmpd I 2.5 g ae/ha): 87% | % control rated visually, ob (observed) ([4]; Cmpd I 5 g ae/ha): 85% | % control rated visually, ob (observed) ([4]; Cmpd I 10 g ae/ha): 90% | % control rated visually, ob (observed) ([5]; Cmpd I 2.5 g ae/ha): 20% | % control rated visually, ob (observed) ([5]; Cmpd I 5 g ae/ha): 38% | % control rated visually, ob (observed) ([5]; Cmpd I 10 g ae/ha): 43% | % control rated visually, ob (observed) ([6]; Cmpd I 2.5 g ae/ha): 82% | % control rated visually, ob (observed) ([6]; Cmpd I 5 g ae/ha): 90% | % control rated visually, ob (observed) ([6]; Cmpd I 10 g ae/ha): 91% | % control rated visually, ob (observed) ([7]; Cmpd I 2.5 g ae/ha): 30% | % control rated visually, ob (observed) ([7]; Cmpd I 5 g ae/ha): 43% | % control rated visually, ob (observed) ([7]; Cmpd I 10 g ae/ha): 62% | % control rated visually, ob (observed) ([8]; Cmpd I 2.5 g ae/ha): 0% | % control rated visually, ob (observed) ([8]; Cmpd I 5 g ae/ha): 5% | % control rated visually, ob (observed) ([8]; Cmpd I 10 g ae/ha): 35% | % control rated visually, ob (observed) ([9]; Cmpd I 2.5 g ae/ha): 50% | % control rated visually, ob (observed) ([9]; Cmpd I 5 g ae/ha): 57% | % control rated visually, ob (observed) ([9]; Cmpd I 10 g ae/ha): 72% | % control rated visually, ob (observed) ([10]; Cmpd I 2.5 g ae/ha): 80% | % control rated visually, ob (observed) ([10]; Cmpd I 5 g ae/ha): 87% | % control rated visually, ob (observed) ([10]; Cmpd I 10 g ae/ha): 100% | % control rated visually, ob (observed) ([11]; Cmpd I 2.5 g ae/ha): 0% | % control rated visually, ob (observed) ([11]; Cmpd I 5 g ae/ha): 0% | % control rated visually, ob (observed) ([11]; Cmpd I 10 g ae/ha): 10% | % control rated visually, ob (observed) ([12]; Cmpd I 2.5 g ae/ha): 85% | % control rated visually, ob (observed) ([12]; Cmpd I 5 g ae/ha): 93% | % control rated visually, ob (observed) ([12]; Cmpd I 10 g ae/ha): 100% | % control rated visually, ob (observed) ([13]; Cmpd I 1.25 g ae/ha, 32 DAAA): 7.5% | % control rated visually, ob (observed) ([13]; Cmpd I 1.25 g ae/ha, 58 DAAA): 11.3% | % control rated visually, ob (observed) ([13]; Cmpd I 1.25 g ae/ha, 80 DAAA): 16.3% | % control rated visually, ob (observed) ([13]; Cmpd I 2.5 g ae/ha, 32 DAAA): 10.0% | % control rated visually, ob (observed) ([13]; Cmpd I 2.5 g ae/ha, 58 DAAA): 15.0% | % control rated visually, ob (observed) ([13]; Cmpd I 2.5 g ae/ha, 80 DAAA): 15.0% | % control rated visually, ob (observed) ([13]; Cmpd I 5 g ae/ha, 32 DAAA): 6.3% | % control rated visually, ob (observed) ([13]; Cmpd I 5 g ae/ha, 58 DAAA): 12.5% | % control rated visually, ob (observed) ([13]; Cmpd I 5 g ae/ha, 80 DAAA): 6.3% | % control rated visually, ob (observed) ([13]; Cmpd I 7.5 g ae/ha, 32 DAAA): 28.8% | % control rated visually, ob (observed) ([13]; Cmpd I 7.5 g ae/ha, 58 DAAA): 28.8% | % control rated visually, ob (observed) ([13]; Cmpd I 7.5 g ae/ha, 80 DAAA): 18.8%
